The source of these data is the supplement of paper PMC11208160.
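Further: IS621 bridge recombinase in Escherichia coli cells against a fixed T5 target plasmid.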

The series in a line: recombinant UMI read abundance after kanamycin selection (control-corrected) (log10(CPM+1)); higher = more efficient recombination; extreme values may be limits of the assay; sequences stand for … in AGTGCAGAGAAAATCGGCCAGTTTTCTCTGCCTGCAGTCCGCATGCCGTGGGACCCCTTGGGTTCTAACCTGTTGCCTAGATTTATGCAGCGGACTGCCTTTCTCCCAAAGTGATAAACCGG…AGGTTGGTTTCACT; site = the 11-nt donor. The protocol:
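Pooled E. coli donor-specificity screen for the IS621 bridge recombinase. Each library member carries a reprogrammed 11-nt donor and a full-length LE bridge RNA expressed in cis from the natural promoter, with a paired donor-binding loop (8-nt LDG + 4-nt RDG) and a target-binding loop fixed to T5. It is co-electroporated with a T5 target plasmid; recombinase is induced with 0.07 mM IPTG and recombinants are selected on kanamycin. UMIs are counted as CPM, averaged over two biological replicates and corrected by the unselected control. Molecule = full bridge RNA written as DNA, built from the T5 scaffold: LDG = donor specificity nt 1-8, RDG = reverse complement of nt 8-11.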
Take “ACGCCACCATGGACCGGTTTTCCCGGTAATCCGTATTTGGG (site ACGCCACCTCC)”: the “recombinant UMI read abundance (log10)” value came to 0.011. As to “ACGCCTCCATGGACCGGTTTTCCCGGTAATCCGTATTTGTG (site ACGCCTCCTCA)”, the “recombinant UMI read abundance (log10)” value was 0.0426. The same measure for “ACGCGCACATGGACCGGTTTTCCCGGTAATCCGTATTTGCG (site ACGCGCACTCG)”: 1.97; for “ACGGCCCCATGGACCGGTTTTCCCGGTAATCCGTATTTGTG (site ACGGCCCCTCA)”: 0.0276; for “ACGGCCGCATGGACCGGTTTTCCCGGTAATCCGTATTTGAA (site ACGGCCGCTTT)”: 1.43.

On to “ACGGCGTCATGGACCGGTTTTCCCGGTAATCCGTATTTGGT (site ACGGCGTCTAC)”, for which the “recombinant UMI read abundance (log10)” value is 2.01. The same measure for “ACGGGACCATGGACCGGTTTTCCCGGTAATCCGTATTTGTC (site ACGGGACCTGA)”: 0.

Regarding “ACGGGCGCATGGACCGGTTTTCCCGGTAATCCGTATTTGTT (site ACGGGCGCTAA)”, the “recombinant UMI read abundance (log10)” value was 1.39. For the sequence “ACGGTAGCATGGACCGGTTTTCCCGGTAATCCGTATTTGCA (site ACAGTATCTTG)”, the “recombinant UMI read abundance (log10)” value came to 2.05. The same measure for “ACGGTAGCATGGACCGGTTTTCCCGGTAATCCGTATTTGCA (site ACGGTAGCTTG)”: 2.74.

Take “ACGTAGCCATGGACCGGTTTTCCCGGTAATCCGTATTTGCC (site ACGTAGCCTGG)”: the “recombinant UMI read abundance (log10)” value is 0.17. The same measure for “ACGTCACCATGGACCGGTTTTCCCGGTAATCCGTATTTGTA (site ACGTCACCTTA)”: 0.0617; for “ACGTGCACATGGACCGGTTTTCCCGGTAATCCGTATTTGGG (site ACGTGCACTCC)”: 0.0159; for “ACGTGGCCATGGACCGGTTTTCCCGGTAATCCGTATTTGAG (site ACGTGGCCTCT)”: 0.0124. On to “ACGTGTACATGGACCGGTTTTCCCGGTAATCCGTATTTGTT (site ACGTGTACTAA)”, for which the “recombinant UMI read abundance (log10)” value turned out to be 1.47. Regarding “ACGTGTTCATGGACCGGTTTTCCCGGTAATCCGTATTTGAC (site ACGTGTTCTGT)”, the “recombinant UMI read abundance (log10)” value worked out at 2.1.

As for “ACGTTCCCATGGACCGGTTTTCCCGGTAATCCGTATTTGTG (site AAGTTCCCTCA)”, the “recombinant UMI read abundance (log10)” value came to 0.0189. In the case of “ACGTTCCCATGGACCGGTTTTCCCGGTAATCCGTATTTGTG (site ACGTTCCCTCA)” it was 0.0247; in that of “ACGTTCCCATGGACCGGTTTTCCCGGTAATCCGTATTTGTG (site AGGTTCCCTCA)”, 0.0827; in that of “ACGTTCCCATGGACCGGTTTTCCCGGTAATCCGTATTTGTG (site ATGTTCCCTCA)”, 0.0196. In the case of “ACGTTTACATGGACCGGTTTTCCCGGTAATCCGTATTTGCT (site ACGTTTACTAG)” it was 2.06. In the case of “ACGTTTACATGGACCGGTTTTCCCGGTAATCCGTATTTGCT (site CCGTTTACTAG)” it was 1.53. Consider “ACGTTTACATGGACCGGTTTTCCCGGTAATCCGTATTTGCT (site GCGTTTACTAG)”, for which the “recombinant UMI read abundance (log10)” value came to 0.666. In the case of “ACGTTTACATGGACCGGTTTTCCCGGTAATCCGTATTTGCT (site TCGTTTACTAG)” it was 1.37; in that of “ACGTTTGCATGGACCGGTTTTCCCGGTAATCCGTATTTGTC (site ACGTTTGCTGA)”, 1.45; in that of “ACTAAGTCATGGACCGGTTTTCCCGGTAATCCGTATTTGAG (site ACTAAGTCTCT)”, 2.46.

As for “ACTACACCATGGACCGGTTTTCCCGGTAATCCGTATTTGCC (site ACTACACCTGG)”, the “recombinant UMI read abundance (log10)” value worked out at 0.

On to “ACTACAGCATGGACCGGTTTTCCCGGTAATCCGTATTTGAC (site ACTACAGCTGT)”, for which the “recombinant UMI read abundance (log10)” value was 2.36. In the case of “ACTACCCCATGGACCGGTTTTCCCGGTAATCCGTATTTGAC (site ACTACCCCTGT)” it was 0.736; in that of “ACTAGAACATGGACCGGTTTTCCCGGTAATCCGTATTTGGG (site ACTAGAACTCA)”, 0.0109. The same measure for “ACTAGAACATGGACCGGTTTTCCCGGTAATCCGTATTTGGG (site ACTAGAACTCC)”: 0.113; for “ACTAGAACATGGACCGGTTTTCCCGGTAATCCGTATTTGGG (site ACTAGAACTCG)”: 0.00448. The same measure for “ACTAGAACATGGACCGGTTTTCCCGGTAATCCGTATTTGGG (site ACTAGAACTCT)”: 0.0325.

On to “ACTAGAACATGGACCGGTTTTCCCGGTAATCCGTATTTGTG (site ACTAGAACTCA)”, for which the “recombinant UMI read abundance (log10)” value worked out at 1.35.

On to “ACTAGAACATGGACCGGTTTTCCCGGTAATCCGTATTTGTG (site ACTAGAACTCC)”, for which the “recombinant UMI read abundance (log10)” value came to 0.0298. The same measure for “ACTAGAACATGGACCGGTTTTCCCGGTAATCCGTATTTGTG (site ACTAGAACTCG)”: 0.285. “ACTAGAACATGGACCGGTTTTCCCGGTAATCCGTATTTGTG (site ACTAGAACTCT)”: the “recombinant UMI read abundance (log10)” value stood at 0.

Take “ACTAGTGCATGGACCGGTTTTCCCGGTAATCCGTATTTGGA (site ACTAGTGCTAC)”: the “recombinant UMI read abundance (log10)” value worked out at 0. In the case of “ACTAGTGCATGGACCGGTTTTCCCGGTAATCCGTATTTGGA (site ACTAGTGCTCC)” it was 0.0115; in that of “ACTAGTGCATGGACCGGTTTTCCCGGTAATCCGTATTTGGA (site ACTAGTGCTGC)”, 0; in that of “ACTAGTGCATGGACCGGTTTTCCCGGTAATCCGTATTTGGA (site ACTAGTGCTTC)”, 1.36. Turning to “ACTATAGCATGGACCGGTTTTCCCGGTAATCCGTATTTGCA (site ACTATAGCTTG)”, the “recombinant UMI read abundance (log10)” value came to 1.94. Turning to “ACTCAAGCATGGACCGGTTTTCCCGGTAATCCGTATTTGTT (site ACTCAAGCTAA)”, the “recombinant UMI read abundance (log10)” value is 1.72. For “ACTCCAGCATGGACCGGTTTTCCCGGTAATCCGTATTTGTG (site ACTCCAGCTCA)”, the “recombinant UMI read abundance (log10)” value is 0.753.

On to “ACTCGAGCATGGACCGGTTTTCCCGGTAATCCGTATTTGCT (site ACTCGAGCTAG)”, for which the “recombinant UMI read abundance (log10)” value was 1.64. The same measure for “ACTCTAGCATGGACCGGTTTTCCCGGTAATCCGTATTTGCC (site ACTCTAGCTGG)”: 0.

As to “ACTGAATCATGGACCGGTTTTCCCGGTAATCCGTATTTGCC (site ACTGAATCTGG)”, the “recombinant UMI read abundance (log10)” value came to 2.1. The same measure for “ACTGCATCATGGACCGGTTTTCCCGGTAATCCGTATTTGGA (site ACTGCATCTTC)”: 1.22; for “ACTGGAACATGGACCGGTTTTCCCGGTAATCCGTATTTGAG (site ACTAGAACTCT)”: 1.69. The same measure for “ACTGGAACATGGACCGGTTTTCCCGGTAATCCGTATTTGAG (site ACTCGAACTCT)”: 0.239; for “ACTGGAACATGGACCGGTTTTCCCGGTAATCCGTATTTGAG (site ACTGGAACTCT)”: 2.11. The same measure for “ACTGGAACATGGACCGGTTTTCCCGGTAATCCGTATTTGAG (site ACTTGAACTCT)”: 0.0249.
